Measured values taken from US20070270336A1, “Method for accelerating cutaneous barrier recovery” (Shiseido Company, Ltd., priority 2006, published 2007).
“Also recorded” adds a separate entry of the source.

Key:
hairless mice flank skin = test: Permeability barrier recovery (TEWL) after tape stripping; format: in vivo, mouse; conditions: for permeability barrier recovery after tape stripping (percent recovery of TEWL): single topical application after tape stripping, each reagent 1 mM (FIG. 1 legend), 1, 3 and 6 hours, vs water control
Protocol: All experiments were performed on 7-10-week old male hairless mice (HR-1, Hoshino, Japan). All procedures for measuring of skin barrier function, disrupting the barrier and applying the sample were carried out under anesthesia. All experiments were approved by the Animal Research Committee of the Shiseido Research Center in accordance with the National Research Council Guide. 1-EBIO, diazoxide, gilbenclamide, minoxidil, dequalinium were purchased from Tocris (TOCRIS, Bristol, UK). Valinomycin was purchased from Wako (Wako Osaka, Japan).
(§1) Permeability barrier function was evaluated by measurement of transepidermal water loss (TEWL) with an electric water analyzer, as described previously (Denda, M., Sato J., Masuda Y., Kuramoto M., Elias P. M., Feingold K. R. (1998). J Invest Dermatol 111(5): 858-63). For barrier recovery experiments, both sides of flank skin were treated with repeated tape stripping until the TEWL reached 7-10 mg per cm^2 per h. […] The areas were covered with plastic membranes for 15 min (both treated and control sites) and then the membranes were removed. Previous studies have shown that occlusion for a longer period of time delays barrier repair. […] Two points on one side of a flank were measured and 4-8 mice were used to evaluate the effects of each treatment. We always disrupted the barrier between 7:00AM to 8:00AM to avoid variations in repair rate due to the influence of circadian rhythm. TEWL was then measured over the same sites at 1, 3 and 6 hours after barrier disruption. The barrier recovery results are expressed as percent of recovery, because of variations from day to day in the extent of barrier disruption. In each animal, the percentage of recovery was calculated by the following formula: (TEWL immediately after barrier disruption−TEWL at indicated time point)/(TEWL immediately after barrier disruption−baseline TEWL)×100%). All experiments were performed on 7 to 10-week-old male hairless mice (HR-1, Hoshino, Japan). All procedures including measurement of skin barrier function, disruption of the barrier, and application of test samples were carried out under anesthesia.

[1] = tested on: differentiated cultured human keratinocytes (CHK); test: Evaluation of intracellular potassium levels (PBFI-AM fluorescence); format: cell-based; conditions: FIG. 3
Protocol: Evaluation of intracellular potassium levels All in vitro cell culture measurements were carried out using second passage human neonatal keratinocytes. We incubated cells in a low calcium medium (0.1 mM calcium, HuMedia-KG2, KURABO, Osaka, Japan) for at least 5 days and used the cells within 10 days. These keratinocytes were incubated until 100% of confluency, incubated 3 more days, and then incubated in a high calcium medium (1.8 mM calcium) for 24 hours to induce differentiation of the keratinocytes. We then added PBF1-AM (Molecular Probes, Eugene, Oreg.), final concentration 10 μM, and then incubated the cells for 4 hours at 37 C. The cultured keratinocytes were then washed in the medium described above. The cover slip was mounted on a fluorescence microscope (IX70, TS Olympus, Tokyo, Japan) equipped with a 75 W xenon-lamp and band-path filters of 340 nm. Measurements were carried out at the room temperature. Imaging data, recorded by a high-sensitive silicon intensifier target camera (C4742, Hamamatsu Photonics, Hamamatsu, Japan) were recorded by a fluorescence analyzing system (AQUACOSMOS/RATIO1, Hamamatsu Photonics, Hamamatsu, Japan).

hairless mouse flanks = test: Permeability barrier recovery (TEWL) after acetone treatment; format: in vivo; conditions: topical potassium ionophore; FIG. 2B; n=4
Protocol: as §1, with “[…] Immediately after” for “For”, “disruption 100 μl” for “recovery experiments, both sides”, “an aqueous solution containing 1 μM of reagent or water alone (control) was applied to the” for “flank skin were”, “area.” for “with repeated tape stripping until the TEWL reached 7-10 mg per cm^2 per h.”, “All experiments were performed on 7 to 10-week-old male hairless mice (HR-1, Hoshino, Japan). All procedures including measurement of skin barrier function, disruption of the barrier, and application of test samples were carried out under anesthesia.” left out

[2] = tested on: mouse epidermis (stratum granulosum lamellar bodies); test: Electron-microscopic study of lamellar body secretion after acetone treatment; format: in vivo; conditions: one hour after acetone treatment; electron microscopy; FIG. 4
From the text: The full thickness of skin samples for electron microscopy was minced into pieces (<0.5 mm^3) and fixed in modified Karnovsky's fixative overnight. They were then post-fixed in 2% aqueous osmium tetroxide or 0.2% ruthenium tetroxide as described previously (Denda et al. 1998, op. cit.). After fixation, all samples were dehydrated in graded ethanol solutions, and embedded in an Epon-epoxy mixture. Thin sections were stained with lead citrate and uranyl acetate and viewed by electron microscopy.

hairless mice epidermis = test: Epidermal hyperplasia induced by barrier disruption under low humidity; format: in vivo, mouse
Protocol: Animals were kept separately in 7.2 liter cages in which the relative humidity was maintained at less than 10% with dry air as described previously (Denda et al. 1998a). The temperature was the same in all cases (22-25° C.), and fresh air was circulated 100 times per hour. Animals were kept out of the direct stream of air. During the experiments, the animal's behavior was not restricted. The level of NH3 was always below 1 ppm. Animals were first kept in a dry condition for 48 hours and then the skin on both flank sides was treated with acetone-soaked cotton balls, as described previously (Denda et al. 1998a). The procedure was terminated when TEWL reached 2.5-3.5 mg per cm^2 per h. Immediately after the barrier disruption, 100 ul of Diazoxide aqueous solution (100 uM) was applied on one side of the treated area. Water was applied on the other side. Then the animals were again kept in the dry condition for 48 hours. After the experiments, animals were euthanized with diethylether inhalation and skin samples were taken from the treated area. […] On each section, five areas were selected at random; the thickness of the epidermis was measured with an optical micrometer, and the mean value was calculated. […] On each section, five areas were selected at random from one section; the number of immunostained cells per 1 mm of epidermis was counted and the mean value was calculated. […]

Row | Structure (SMILES) | permeability barrier recovery after tape stripping (percent recovery of TEWL) (hairless mice flank skin) | change in intracellular potassium (K+) concentration ([1]; 10 μM final concentration) | lamellar body (LB) secretion at SG-SC interface [2] | other results
1 | CCn1c(=O)[nH]c2ccccc21 [1-EBIO, 1-Ethyl-2-benzoimidazollnone] | significantly accelerated barrier repair; also recorded: accelerated barrier recovery | decreased intracellular K^+ concentrations; also recorded: decreased intracellular potassium concentrations |  | 
2 | COc1ccc(Cl)cc1C(=O)NCCc1ccc(S(=O)(=O)NC(=O)NC2CCCCC2)cc1 [gilbenclamide, 5-chloro-N{2-[4[[[cycohexylamino]carbonyl]amino]sulfonyl]phenyl}-2-metyhoxybenzamide] | significantly delayed barrier recovery |  |  | 
3 | Cc1cc(N)c2ccccc2[n+]1CCCCCCCCCC[n+]1c(C)cc(N)c2ccccc21 [dequalinium, 1,1-(1,10-Decanedyl)bis(4-amino-2-methylquinolinium)dichloride] | significantly delayed barrier recovery |  |  | 
4 | CC(C)[C@@H]1NC(=O)[C@H](C)OC(=O)[C@@H](C(C)C)NC(=O)[C@@H](C(C)C)OC(=O)[C@H](C(C)C)NC(=O)[C@H](C)OC(=O)[C@@H](C(C)C)NC(=O)[C@@H](C(C)C)OC(=O)[C@H](C(C)C)NC(=O)[C@H](C)OC(=O)[C@@H](C(C)C)NC(=O)[C@@H](C(C)C)OC1=O [valinomycin] |  |  | much more secreted material is evident at SG-SC interface; also recorded: accelerated the secretion of LB | permeability barrier recovery after tape stripping (hairless mice flank skin; topical potassium ionophore, FIG. 2A, n=4): accelerated barrier recovery; permeability barrier recovery after acetone treatment (hairless mouse flanks): accelerated barrier recovery; change in intracellular potassium (K+) concentration ([1]; 1 μM final concentration): decreased intracellular K^+ concentrations; also recorded: decreased intracellular potassium concentrations
5 | CC1=Nc2ccc(Cl)cc2S(=O)(=O)N1 [diazoxide, 7-chloro-3-methyl-2H-1,2,4-benzothiadiazine 1,1-dioxide] | significantly accelerated barrier repair; also recorded: accelerated barrier recovery | decreased intracellular K^+ concentrations; also recorded: decreased intracellular potassium concentrations | much more secreted material is evident at SG-SC interface; also recorded: accelerated the secretion of LB | epidermal hyperplasia induced by acetone treatment under low humidity (hairless mice epidermis; topical 100 uM aqueous solution, 48 hours dry condition, vs water, FIG. 5): prevented the epidermal hyperplasia; epidermal proliferation (BrdU positive cells), quantified (hairless mice epidermis; topical 100 uM, FIG. 6, 6 control mice and 5 treated, ANOVA probability 0.0372): Significant reductions of epidermal proliferation
